“Also recorded” adds a separate entry of the source.
Experiments:
AKT phosphorylation = test: Western blot of AKT phosphorylation in REN cells; assay type: cell-based, human; details: 10 nM 2 hours pre-treatment, ± cisplatin
Description: (§1) Cells were extracted with 1% NP-40 lysis buffer (1% NP-40, 150 mM NaCl, 50 mM Tris-HCl pH 8.5 mM EDTA, 10 mM NaF, 10 mM Na4P2O7, 0.4 mM Na3VO4) with freshly added protease inhibitors (10 μg/ml leupeptin, 4 μg/ml pepstatin and 0.1 Unit/ml aprotinin). For protein extraction from tissues, ˜100 mg of each sample were homogenized, using a Potter-Elvehjem homogenizer device, in 1% NP-40 lysis buffer. Lysates were centrifuged at 13.000×g for 10 minutes at 4° C. and the supernatants were collected and assayed for protein concentration with the Bio-Rad protein assay method.
(§2) Proteins were separated by SDS-PAGE under reducing conditions. Following SDS-PAGE, proteins were transferred to nitrocellulose, reacted with specific antibodies and then detected with peroxidase-conjugate secondary antibodies and chemioluminescent ECL reagent. Densitometric analysis was performed using the GS 250 Molecular Image (Bio-Rad).
Levels of PARP1, cleaved PARP1, AKT and phosphorylated AKT in REN cells treated for 24 hours with cisplatin (25, 50 and 100 μM) or pre-treated 2 hours with Compound (I) (10 nM) followed by wash-off and continued growth in normal medium±cisplatin (25, 50 and 100 μM), for an additional 24 hours were also determined by Western blot analysis and relative densitometry. […] PARP1 cleavage was analysed as it is an indicator of apoptotic cell death. […]

MET5A cells = test: Proliferation assay in non-malignant mesothelial MET5A cells; assay type: cell-based
Description: (§3) Cells were seeded at a density of 10×10^4 cells/well in 6-well plates in RPMI medium supplemented with 10% FBS, 100 μg/ml streptomycin and 10 μg/ml penicillin and incubated over-night at 37° C. in a humidified environment containing 5% CO2 to allow adherence. Following treatment cells were trypsinized and stained with Trypan blue. The number of cells considered viable (unstained cells) was counted in a Bürker haemocytometer within 5 minutes after staining.
Cell cultures were pretreated with Compound (I) for 1-16 hours (depending on experiment) followed by wash-off and then replenished with normal growth medium±cisplatin, pemetrexed or cisplatin/pemetrexed. Total incubation time was 24-72 hours (depending on experiment). Control cultures were maintained in normal growth medium without added drug. The number of viable cells was determined as described for the proliferation assay.

MMB cells = test: Proliferation assay in MMB cells; assay type: cell-based; details: 10 nM single agent, 24 and 48 hours
Description: as §3

[1] = Treatment toxicity by mice body weights; assay type: in vivo; details: 10 mg/kg/day s.c. during drug administration
Description: Animals. CD1 nude mice (males, 6 weeks old; Charles River, Calco, Italy) received intraperitoneal (i.p.) injections of 2×10^6 luciferase transduced REN cells in 0.5 mL of RPMI medium. After anesthetization and i.p. injections of 0.3 mL of 15 mg/mL D-luciferin, tumor dimension and localization of luminescent cells was monitored using the In Vivo Imaging System (IVIS) series (Xenogen Corporation, Hopkinton, Mass., USA). Regions of interest were identified around the tumor sites and were quantified as total photon counts using Living Image software (Xenogen Corporation). The values of tumor sizes were obtained, subtracting luminescence signals of each weekly measurement by the average of all animals within a treatment group on the 15th day after inoculation (day when treatment started). To evaluate treatment toxicity, mice were weighed at the start and end of treatments. Mice were killed and necropsied after 20 days of treatment. In vivo experiments were approved by Istituto Scientifico Tumori (Genoa, Italy) ethical committee and conform to the relevant regulatory standards. Mice were maintained and handled under aseptic conditions, and were allowed access to food and water ad libitum.

PARP1 cleavage [2] = test: Western blot of PARP1 cleavage in REN cells; assay type: cell-based, human
Description: as §1, §2
Levels of PARP1, cleaved PARP1, AKT and phosphorylated AKT in REN cells treated for 24 hours with cisplatin (25, 50 and 100 μM) or pre-treated 2 hours with Compound (I) (10 nM) followed by wash-off and continued growth in normal medium±cisplatin (25, 50 and 100 μM), for an additional 24 hours were also determined by Western blot analysis and relative densitometry. Total AKT and Tubulin staining were used for normalization. PARP1 cleavage was analysed as it is an indicator of apoptotic cell death. As increased AKT activity has been implicated in the control of proliferation, apoptosis and cisplatin resistance (Pinton G., et al, PLoS One (2012) 7:e36856), AKT activation status following different treatments was also analysed.

PARP1 cleavage [3] = test: Western blot of PARP1 cleavage in MMP cells; assay type: cell-based, human; details: 10 nM two hours, wash-off, 50 μM cisplatin
Description: as §1, §2
Levels of PARP1, cleaved PARP1, AKT and phosphorylated AKT in the MMP cell cultures at 24 hours were also determined by Western blot analysis.

REN cells = test: Cell cycle analysis (propidium iodide, flow cytometry) in REN cells; assay type: cell-based, human; details: 10 nM 2 hours pre-treatment, then 100 μM cisplatin 24 hours
Description: For cell cycle/apoptosis analysis, 5×10^5 cells were seeded in tissue culture plates and treated with 100 μM cisplatin for 24 hours or pre-treated for 2 hours with 10 nM Compound (I) followed by wash-off and continued growth in normal medium±100 μM cisplatin, for additional 24 hours at 37° C. in a 5% CO2 atmosphere. After incubation, detached and suspended cells were harvested in complete RPMI and centrifuged at 500×g for 10 minutes. Pellets were washed with PBS, fixed in ice-cold 75% ethanol at 4° C., treated with […] RNAse A for 1 hour at 37° C., stained with 25 μg/mL propidium iodide and finally analyzed by using a flow cytometer FACS (Becton Dickinson, San Jose, Calif., USA) and Modfit software (Verity Software House, Topsham, Me., USA).
REN cells were treated for 24 hours with 100 μM cisplatin or pre-treated 2 hours with 10 nM Compound (I) followed by wash-off and continued growth in normal medium±100 μM cisplatin, for an additional 24 hours. Cell cycle analysis was performed as described above. Control cultures were maintained in normal growth medium. After treatments, cells were stained with propidium iodide and analysed for cellular DNA content by flow cytometry.

Cc1noc(C)c1-c1c(/C(N)=N/O)c2ccccc2n1-c1ccc(O)cc1 [Compound (I)]
AKT phosphorylation in REN cells (AKT phosphorylation): significantly reduced AKT phosphorylation both in the absence and in the presence of cisplatin
effect on cisplatin toxicity in MET5A cells (MET5A cells; 10 nM 2 hours pre-treatment, wash-off, cisplatin 25, 50, 100 μM 24 hours): protective effect was observed when Compound (I) pre-treatment was combined with low doses of cisplatin; also recorded: diminished and/or counteracted the toxicity of cisplatin
MET5A cell proliferation or viability, alone (MET5A cells; 10 nM 2 hours, wash-off, normal medium 24 hours): no effect on MET5A cell proliferation or viability
inhibition of proliferation, MET5A cells (MET5A cells; 10 nM single agent, 24 and 48 hours, high endogenous ERβ): no inhibitory effect was observed
inhibition of proliferation, MMB cells (MMB cells): significantly (p≤0.05) inhibited proliferation
toxicity assessed by changes of mice body weights [1]: not to be toxic
appearance of cleaved PARP1, pre-treatment then cisplatin (PARP1 cleavage [2]; 10 nM 2 hours prior to cisplatin (25, 50, 100 μM) 24 hours): greatest effect on the appearance of cleaved PARP1
PARP1 cleavage, single agent (PARP1 cleavage [2]; agent alone): neither cisplatin nor Compound (I) alone resulted in significant PARP1 cleavage
level of cleaved PARP1 in MMP cells (PARP1 cleavage [3]): most significant increase in the level of cleaved PARP1
cell cycle phase distribution (REN cells): significant and efficient blockage of the cell cycle in the G0/G1 phase and inhibition of cells entering the S-phase
percentage of dead cells (REN cells): significant higher percentage of dead cells
